Structures can show the parent of a compound that is named as a salt.
Experiments:
[1] = test system: LI1005 HCC patient derived cells; assay: CellTiter-Glo growth inhibition, HCC patient-derived cells LI1005; format: cell-based, human; conditions: LI1005, 72 hours
Description: (§1) The patient derived Hepatocellular Carcinoma (HCC) cells were maintained in medium respectively described in table 15 containing 1% penicillin-streptomycin (Life Technologies, 15070-063), with a supplements for primary cell culture (PCS) containing hydrocortisone (50 nM), Epidermal Growth Factor (20 ng/ml), β-fibroblast Growth Factor (10 ng/ml), Heparin (2 μg/ml) ITS liquid media supplement (1×) and non-essential amino acid (NEAA, 0.01 mM, 1×). The primary cell were cultured in a humidified atmosphere (95% relative humidity) with 5% CO2 at 37° C.
(§2) The cell growth inhibition assay was performed as described previously in example 5 using the CellTiter-Glo® luminescent cell viability assay as described by the manufacturer (Promega, Ref G7571). The number of cells seeded per well (in 96-Well Flat Clear Bottom Black Polystyrene TC-Treated Microplates, Cat #3340, Corning®) is described in the table 16. A backseal black sticker (Cat #6005189, Perkin Elmer) was placed to the bottom of each plate before recording CellTiter-Glo® luminescence.
(§3) The experimental data are analyzed using a computer program, Graphpad Prism V 5.0 (GraphPad Software, Inc. La Jolla, Calif.) and EC50 values were determined as the dose of compound required to reduce absorbance values to 50% of the signal obtained for vehicle treated cell cultures and were a mean of at least three independent experiments.

[2] = test system: LI0050 HCC patient derived cells; assay: CellTiter-Glo growth inhibition, HCC patient-derived cells LI0050; format: cell-based, human; conditions: LI0050, 72 hours
Description: as §1, §2, §3

[3] = test system: LI0801 HCC patient derived cells; assay: CellTiter-Glo growth inhibition, HCC patient-derived cells LI0801; format: cell-based, human; conditions: LI0801, 72 hours
Description: as §1, §2, §3

CAKI-1 cell line = assay: CellTiter-Glo growth inhibition assay, CAKI-1; format: cell-based; conditions: Homo sapiens, CAKI-1, 72 h
Description: (§4) CAKI-1 and 786-0 cell lines were maintained in RPMI 1640 medium (Dutscher, L0498) containing 1% penicillin-streptomycin (Dutscher, P06-07100) and 10% Fetal Bovine Serum (Gibco, W3387L) and cultured at 37° C. with 5% CO2.
(§5) Cell viability was measured using the CellTiter-Glo® luminescent cell viability assay as described by the manufacturer (Promega, Ref G7571) using an Infinite F200Pro luminometer (Tecan). Briefly, cells were plated onto 96-well plates (white with clear bottom) in 90 μL of media per well and were allowed to grow overnight before the assay.
(§6) Compounds 2-3 and two reference compounds (Sorafenib and Sunitinib) were added at different concentrations to each well, and cell cultures were incubated for 72 h. For compound 2-3 analysis, H2O was used as a negative control (=untreated) and all concentrations were tested in a constant percentage of H2O. For Sorafenib and Sunitinib analysis, DMSO was used as a negative control (=untreated) and all concentrations were tested in a constant percentage of DMSO. 72 h after incubation of compounds, 100 μL of CellTiter-Glo® were added to each well and luminescence was measured using an Infinite F200Pro (Tecan). EC50 values were determined as the dose of compound required to reduce luminescent values to 50% of the signal obtained for untreated cell cultures. The experimental data were analyzed using a computer program, Graphpad Prism v5 (GraphPad Software, Inc. La Jolla, Calif.). All experiments were at least done in triplicate and repeated at least three independent times.

[4] = test system: LI0612 HCC patient derived cells; assay: CellTiter-Glo growth inhibition, HCC patient-derived cells LI0612; format: cell-based, human; conditions: LI0612, 72 hours
Description: as §1, §2, §3

[5] = test system: LI0574 HCC patient derived cells; assay: CellTiter-Glo growth inhibition, HCC patient-derived cells LI0574; format: cell-based, human; conditions: LI0574, 72 hours
Description: as §1, §2, §3

[6] = test system: LI0752 HCC patient derived cells; assay: CellTiter-Glo growth inhibition, HCC patient-derived cells LI0752; format: cell-based, human; conditions: LI0752, 72 hours
Description: as §1, §2, §3

786-O cell line = assay: CellTiter-Glo growth inhibition assay, 786-O; format: cell-based; conditions: Homo sapiens, 786-0, 72 h
Description: as §4, §5, §6

[7] = test system: LI1098 HCC patient derived cells; assay: CellTiter-Glo growth inhibition, HCC patient-derived cells LI1098; format: cell-based, human; conditions: LI1098, 72 hours
Description: as §1, §2, §3

[8] = test system: LI1646 HCC patient derived cells; assay: CellTiter-Glo growth inhibition, HCC patient-derived cells LI1646; format: cell-based, human; conditions: LI1646, 72 hours
Description: as §1, §2, §3

MOLM-14 cell line [9] = assay: CellTiter-Glo growth inhibition assay, MOLM-14 (Example 6); format: cell-based, human; conditions: MOLM-14, 72 h, method of Example 6
Description: MOLM-14 cell line was cultured in MEM alpha medium supplemented with 10% v/v Fetal Bovine Serum, 1% Penicillin-Streptomycin and maintained at 37° C. with 5% CO2. 10,000 cells were plated onto 96-well plates immediately before the assay.
Each compound was added at different concentrations (combinations of six concentrations) to each well, and cell cultures were incubated for 72 h. Vehicle (H2O) was used as a control, and all compounds were tested in a constant percentage of vehicle. Cell outgrowth was measured using the CellTiter-Glo® luminescent cell viability assay as described by the manufacturer (Promega, Ref G7571 Madison, Wis., USA) using a Centro (Berthold, France) plate reader.
In each experiment, each point represents the average of triplicates in cell culture.
The experimental data are analyzed using a computer program, Graphpad Prism v5 (GraphPad Software, Inc. La Jolla, Calif.) and EC50 values were determined as the dose of compound required to reduce absorbance values to 50% of the signal obtained for vehicle treated cell cultures.

[10] = test system: ALDH+ (CSC) population of MOLM-14 cell line; assay: Aldefluor kit assay, ALDH+ compartment in MOLM-14; format: cell-based, human; conditions: 72 h, control = 100
Source text: Analysis of the of aldehyde dehydrogenase (ALDH) compartment and high activity level of aldehyde dehydrogenase activity (ALDH+) was used to detect tumor initiating cells (cancer stem cells, CSC) population. The Aldefluor™ kit assay (StemCell Technologies, 01700) allowed to assess the activity of drugs on CSC cells like in a MOLM-14 acute myeloid leukemia cell line population (ref: Storms, R. W., Trujillo, A. P., Springer, J. B., Shah, L., Colvin, O. M., Ludeman, S. M., & Smith, C. (1999). Isolation of primitive human hematopoietic progenitors on the basis of aldehyde dehydrogenase activity. Proceedings of the National Academy of Sciences, 96(16), 9118-9123). The Aldefluor™ kit assay was used according to the procedure described by the manufacturer. Briefly, MOLM-14 cell line was cultured in MEM alpha medium supplemented with 10% v/v Fetal Bovine Serum, 1% Penicillin-Streptomycin and maintained at 37° C. with 5% CO2. 5·10^5 cells were used in this assay. Each compound was added at different concentrations (see table 8), and cell cultures were incubated for 72 h. Vehicle (H2O) was used as a control, and all compounds were tested in a constant percentage of vehicle. Cells obtained from cell culture were incubated for 45 minutes at 37° C. with Aldefluor™ buffer assay containing the Bodipy™-aminoacetaldehyde, a fluorescent ALDH aldehyde substrate. ALDH converts the fluorescent substrate BAAA to the Bodipy™-aminoacetic acid (BAA) which is retained in the cell. An active efflux inhibitor is present in the Adelfluor™ assay buffer in order to avoid the active efflux from the cell of the substrate product ALDH dependent converted BAA. The fluorescent signal is directly proportional to the ALDH activity in the cells and is measured by flow cytometry. A negative control is used to measure the background fluorescence level. For such purpose, 4-(N,N-diethylamino)-benzaldehyde (DEAB) was used as selective ALDH inhibitor. A viability cell count was performed using LIVE/DEAD® Fixable Far Red Dead Cell Stain Kit (Invitrogen). The experimental data are analyzed using a computer program, Graphpad Prism v5 (GraphPad Software, Inc. La Jolla, Calif.) and EC50 values were determined as the dose of compound required to reduce absorbance values to 50% of the signal obtained for vehicle treated cell cultures.

MOLM-14 cell line [11] = assay: CellTiter-Glo cell viability / growth inhibition assay, MOLM-14 (Example 5); format: cell-based; conditions: Homo sapiens, 72 h; for viability at 4 µM / viability at 10 µM: MOLM-14
Description: (§7) All cell lines were maintained in medium containing 1% penicillin-streptomycin (Dutscher, P06-07100) and 10% Fetal Bovine Serum (Gibco, W3387L) except 20% for KG-1 cell line and PBMC, and cultured at 37° C. with 5% CO2.
MOLM-14 cell line was maintained in MEM alpha medium (Gibco, 22561-021).
as §5, with “Briefly, for adherent cells,” for “Briefly,”, “assay. For cells growing in suspension, cells were plated onto 96-well plates immediately before the assay.” for “assay.”
(§8) Compounds were added at different concentrations to each well, and cell cultures were incubated for 72 h. Vehicle (H2O) was used as a control, and all compounds were tested in a constant percentage of H2O. After addition of 100 μL of CellTiter-Glo®, luminescence was measured using an Infinite F200Pro (Tecan). EC50 values were determined as the dose of compound required to reduce luminescent values to 50% of the signal obtained for untreated cell cultures. The experimental data were analyzed using a computer program, Graphpad Prism v5 (GraphPad Software, Inc. La Jolla, Calif.).
All experiments were at least done in duplicate and repeated two independent times.

A375 cell line = assay: CellTiter-Glo growth inhibition assay, A375; format: cell-based; conditions: Homo sapiens, A-375; A375, malignant melanoma, 72 h
Description: as §7
(§9) HepG2, Huh7, HCT-116, MDA-MB-231 and A375 cell lines were cultured in Dulbecco's modified Eagle's medium (Dutscher, L0103).
as §5, with “Briefly, for adherent cells,” for “Briefly,”, “assay. For cells growing in suspension, cells were plated onto 96-well plates immediately before the assay.” for “assay.”
as §8, with “Calif.). […]” for “Calif.).”

HCT-116 cell line = assay: CellTiter-Glo growth inhibition assay, HCT-116; format: cell-based; conditions: Homo sapiens; HCT-116, colorectal carcinoma, 72 h
Description: as §7, §9
as §5, with “Briefly, for adherent cells,” for “Briefly,”, “assay. For cells growing in suspension, cells were plated onto 96-well plates immediately before the assay.” for “assay.”
as §8, with “Calif.). […]” for “Calif.).”

HepG2 cell line = assay: CellTiter-Glo growth inhibition assay, HepG2; format: cell-based; conditions: Homo sapiens; HepG2, hepatocellular carcinoma, 72 h
Description: as §7, §9
as §5, with “Briefly, for adherent cells,” for “Briefly,”, “assay. For cells growing in suspension, cells were plated onto 96-well plates immediately before the assay.” for “assay.”
as §8, with “Calif.). […]” for “Calif.).”

BEL-7402 cells line = assay: CellTiter-Glo growth inhibition assay, BEL-7402 (internal control); format: cell-based; conditions: Homo sapiens, 72 h
Description: When performing the assay, dose response test of Doxorubicin on BEL-7402 cells line (human primary hepatocellular carcinoma) will be used as internal control in each assay plate for the assay. The MEM medium supplemented with 5% H2O (5×) will be added into the cells as a negative controls. The final H2O concentration was 1% in each well.
Cells in log-phase are collected and counted. Cell suspensions are added to each well of 384-well plate at 800 cells per well (total volume 40 μl). The margin wells are filled with PBS buffer. Test compound at various concentrations are added in duplicates (add 10 μl 5× compound solutions to the plate). The assay plate is incubated for 72 h in 37° C./5% CO2 incubator. Cell viability was measured using the CellTiter-Glo® luminescent cell viability assay as described by the manufacturer (Promega, Ref G7571). After addition of 100 μL of CellTiter-Glo® reactifs solution, luminescence was measured using a PHERAstar Plus luminometer. Data were recorded by PHERAstar Plus, Data acquisition and analysis were performed using Microsoft Excel program and GraphPad Prism v.6 software.

CNC(=O)c1cc(Oc2ccc(NC(=O)Nc3ccc(Cl)c(C(F)(F)F)c3)cc2)ccn1 [Sorafenib]
EC50 ([1]; Homo sapiens): 14.5 µM
EC50 ([2]; Homo sapiens): 9.1 µM
EC50 ([3]; Homo sapiens): 5.7 µM
EC50 (CAKI-1 cell line): 4.5 µM
EC50 ([4]; Homo sapiens): 17.9 µM
EC50 ([5]; Homo sapiens): 8.7 µM
EC50 ([6]; Homo sapiens): 6.3 µM
EC50 (786-O cell line): 6.8 µM
EC50 ([7]; Homo sapiens): 10.9 µM
EC50 ([8]; Homo sapiens): 10.3 µM

Nc1ccn([C@@H]2O[C@H](CO)[C@@H](O)[C@@H]2O)c(=O)n1 [Cytarabin, reference compound]
EC50 (MOLM-14 cell line [9]): 290 nM
ALdefluor positive CSCs (%) ([10]; MOLM-14, 1 μM): 130%
ALdefluor positive CSCs (%) ([10]; MOLM-14, 3 μM): 116%

CC(C)(C)NC1CCN(c2cc(Nc3ccc(Cl)cc3)nc3ccccc23)CC1 [Compound 1-6, 2-(4-chlorophenylamino)-4-(4-tert-butylaminopiperidin-1-yl)-quinoline hydrochloride salt]
viability at 4 µM (MOLM-14 cell line [11]): 71.8%
viability at 10 µM (MOLM-14 cell line [11]): 12.1%

Cc1cc(Nc2cc(N3CCC(NC(C)(C)C)CC3)c3ccccc3n2)ccc1Nc1nccc(-c2cccnc2)n1 [Compound 4-3, 2-{4-[4-(pyridin-3-yl)-2-pyrimidinamino]-3-methyl-phenylamino}-4-(4-tert-butylaminopiperidin-1-yl)-quinoline hydrochloride salt]
EC50 (A375 cell line): 1400 nM
EC50 (HCT-116 cell line): 1800 nM
EC50 (HepG2 cell line): 6.3 µM
viability at 4 µM (MOLM-14 cell line [11]): 0.5%
viability at 10 µM (MOLM-14 cell line [11]): 0.2%
EC50 (MOLM-14 cell line [11]; MOLM-14, acute myeloïd leukemia, FLT3-ITD heterozygote+/−): 2300 nM

N.N.[Cl][Pt][Cl] [Cisplatin]
EC50 [1]: 5.9 µM
EC50 [2]: 1.3 µM
EC50 [3]: 1.5 µM
EC50 [4]: 16.3 µM
EC50 [5]: 3.6 µM
EC50 [6]: 2.6 µM
EC50 [7]: 5.1 µM
EC50 [8]: 10 µM

Cc1cc(Nc2cc(N3CCC(NC(C)(C)C)CC3)c3ccccc3n2)ccc1Nc1ncccn1 [Compound 3-5, 2-[3-methyl-4-(pyrimidin-2-ylamino)phenylamino]-4-(4-tert-butylaminopiperidin-1-yl)-quinoline hydrochloride salt]
viability at 4 µM (MOLM-14 cell line [11]): 78.7%
viability at 10 µM (MOLM-14 cell line [11]): 8.7%

CCN(CC)CCNC(=O)c1c(C)[nH]c(/C=C2\C(=O)Nc3ccc(F)cc32)c1C [Sunitinib]
EC50 (CAKI-1 cell line): 1.7 µM
EC50 (786-O cell line): 6 µM

COc1cccc2c1C(=O)c1c(O)c3c(c(O)c1C2=O)C[C@@](O)(C(=O)CO)C[C@@H]3O[C@H]1C[C@H](N)[C@H](O)[C@H](C)O1 [Doxorubicin]
EC50 (BEL-7402 cells line): 150 nM
